Data from a melting point compilation (Tetko et al.; mined from patent text by program, amines drawn as free bases though some values may be those of a salt).

**Q.** For O=C(c1ccc(OC[C@H](O)CO)cc1)c1ccc([N+](=O)[O-])cc1, which melting point is on record?
**A.** 104 to 105 °C

**Q.** For CC(=O)NC1=NN(c2ccc(F)cc2)C(C)C1 (stereo unspecified), which melting point is on record?
**A.** 136 to 138 °C

**Q.** Which melting point does the source give for CC(=O)NC[C@H]1CN(c2ccc(C(=O)c3cnc4ccc(Cl)nn34)cc2)C(=O)O1 here?
**A.** 194 to 196 °C

**Q.** With COc1nc2cc(Cl)c(Cl)cc2nc1S(C)(=O)=O as the compound, how does the melting point read?
**A.** 216 to 219 °C

**Q.** Which melting point does the source give for CCOC(Cc1ccccc1)=C1SC(=S)N(c2ccccc2)C1=O here?
**A.** 119 to 121 °C

**Q.** Which melting point does the source give for CC(C)(C)OC(=O)Nc1cc(N2CC3OC(C)(C)OC3C2)c(-c2ccc(F)cc2)cc1[N+](=O)[O-] (stereo unspecified) here?
**A.** 119 °C

**Q.** For O=c1cc(C=Cc2ccc(O)cc2)oc(-c2ccccc2)c1, which melting point is on record?
**A.** 198 to 201 °C

**Q.** Which melting point does the source give for COc1cc2oc(=O)c(CCN3CCN(c4ccccc4OC)CC3)c(C)c2cc1OC(C)C here?
**A.** 123 to 125 °C

**Q.** Which melting point does the source give for CCOC(=O)c1cnn(C)c1S(N)(=O)=O here?
**A.** 102 to 104 °C

**Q.** With CS(=O)(=O)c1ccc(-c2cc(F)c(F)cc2-c2ccc(F)cc2)cc1 as the compound, how does the melting point read?
**A.** 148 °C

**Q.** For c1ccc2scnc2c1, which melting point is on record?
**A.** 134 to 135 °C

**Q.** With CCC1SC(=O)N(Cc2ccc(N)cc2)N=C1c1ccc(OC)c(OC)c1 (stereo unspecified) as the compound, how does the melting point read?
**A.** 105 °C

**Q.** For NC(=O)N(O)Cc1sccc1Sc1ccc(F)cc1, which melting point is on record?
**A.** 101 to 103 °C

**Q.** Which melting point does the source give for COc1ccc(CCC(=O)c2cccc(O)c2)cc1OC here?
**A.** 132 to 134 °C

**Q.** For COc1ccc(Sc2oc3ccc(Cl)cc3c2C)nn1, which melting point is on record?
**A.** 131 to 134 °C

**Q.** For CCC1C(C=O)=NN=C(c2ccc(OC)c(OC)c2)c2cc(OC)c(OC)cc21 (stereo unspecified), which melting point is on record?
**A.** 103 to 105 °C

**Q.** Which melting point does the source give for CCCCCCCCCCCCCCOc1ccc(C(=O)N(CC(=O)OC)CC(=O)OC)cc1OCCCCCCCCCCCCCC here?
**A.** 70 to 71 °C

**Q.** Which melting point does the source give for CCN(Cc1ccccc1)C(=O)Cc1c(-c2ccc(C)cc2)nc2cc(C)ccn12 here?
**A.** 220 to 222 °C

**Q.** Which melting point does the source give for O=C(O)[C@@H]1C[C@H](O)CN1C(=O)c1ccccc1 here?
**A.** 133 to 136 °C

**Q.** Which melting point does the source give for COC(=O)c1ccc(-c2nnc(CSCCOc3ccc(Cl)cc3Cl)o2)cc1 here?
**A.** 148 to 152 °C

**Q.** For O=C(CCCc1ccccc1)N[C@H](Cc1cccc(C(F)(F)F)c1)[C@@H](O)c1ccc(F)cc1 (racemic), which melting point is on record?
**A.** 110 to 111 °C

**Q.** Which melting point does the source give for CNC(=O)[C@@H](C[C@H](O)[C@H](CC1CCCCC1)NC(=O)[C@H](Cc1cscn1)NC(=O)OC(C)(C)C)C(C)C here?
**A.** 183 to 185 °C

**Q.** With O=S(=O)(NCCN1CC(c2ccccc2)C(c2ccc(Cl)cc2)=N1)c1cccc(C(F)(F)F)c1 (stereo unspecified) as the compound, how does the melting point read?
**A.** 94 to 96 °C

**Q.** Which melting point does the source give for CC12CCC3c4ccc(OCc5ccccc5)cc4CCC3C1CCC2OCc1ccccc1 (stereo unspecified) here?
**A.** 74 to 78 °C

**Q.** Which melting point does the source give for COC(=O)c1cc(Cl)c(NC(C)=O)cc1OC(C)=O here?
**A.** 134 to 136 °C

**Q.** Which melting point does the source give for O=C(c1ccc(C2CCCCC2)cc1)c1ccccn1 here?
**A.** 44 to 45 °C

**Q.** With Nc1ncnc2c1c(-c1cc(O)cc(F)c1)nn2Cc1oc2ccccc2c(=O)c1-c1cccc(F)c1 as the compound, how does the melting point read?
**A.** 235 to 237 °C

**Q.** Which melting point does the source give for COc1ccc(C(=O)c2ccc(Cl)nc2)cc1OC here?
**A.** 158 to 159 °C

**Q.** For CN(C(=O)c1ccccn1)c1cc(F)cc(F)c1, which melting point is on record?
**A.** 102 to 104 °C

**Q.** With O=C(O)C1CCCN1C(=O)c1ccc(-c2ccccc2)cc1 (stereo unspecified) as the compound, how does the melting point read?
**A.** 160 °C

**Q.** For C[C@@H]1C[C@H](C)CN(C(=O)[C@@H]2Cc3cc(Br)ccc3N2c2ncccn2)C1, which melting point is on record?
**A.** 142 to 144 °C

**Q.** With COc1ccc2[nH]c(-c3n[nH]c4ccsc34)cc2n1 as the compound, how does the melting point read?
**A.** 234 to 236 °C

**Q.** For Nc1ccc(C(=O)N2CCCCCC2=O)cc1, which melting point is on record?
**A.** 156 to 158 °C

**Q.** With Cn1c(CC#N)ccc1C(=O)c1ccc(N)cc1 as the compound, how does the melting point read?
**A.** 137 to 142 °C

**Q.** With Nc1cccc2c(-c3ccc(=O)[nH]n3)c(-c3ccccc3)nn12 as the compound, how does the melting point read?
**A.** 157 to 159 °C

**Q.** With CN1CCN(c2nn(C(=O)c3ccccc3)c3ccccc23)CC1 as the compound, how does the melting point read?
**A.** 104 to 106 °C

**Q.** For O=C(O)c1cc(-c2ccccc2)c2ccsc2c1, which melting point is on record?
**A.** 222 °C

**Q.** With COc1ccc(C2=NN(C3CCN(S(=O)(=O)c4cccc(C#N)c4)CC3)C(=O)C(C)(C)C2)cc1OC as the compound, how does the melting point read?
**A.** 158 to 160 °C

**Q.** For Cn1ccnc1Sc1ccc(Nc2c(C#N)cnc3cc(-c4ccc(C(=O)N5CCOCC5)cc4)ccc23)cc1Cl, which melting point is on record?
**A.** 98 to 101 °C

**Q.** With O=C(Nc1ccc(F)c(C(F)(F)F)c1)Nc1ccc(OCc2ccccc2)cc1O as the compound, how does the melting point read?
**A.** 188 to 191 °C

**Q.** Which melting point does the source give for Cc1cccc(C(=O)C=CN(C)C)n1 here?
**A.** 97 to 98 °C

**Q.** Which melting point does the source give for ClCCCn1ncc2cc(OCc3ccccc3)ccc21 here?
**A.** 65 to 66 °C

**Q.** For COc1cc(NC(C)CCCN2C(=O)c3ccccc3C2=O)c2ncccc2c1N(C)C (stereo unspecified), which melting point is on record?
**A.** 103 to 105 °C

**Q.** For CC1(C)C(=O)Nc2cc(C(=O)CBr)ccc21, which melting point is on record?
**A.** 230 to 232 °C

**Q.** For O=c1[nH]nc2ccc(OCCCN3CCC(OC(c4ccccc4)c4ccccc4)CC3)nn12, which melting point is on record?
**A.** 209 to 211 °C

**Q.** For BrCc1ccc(-c2cnn(-c3ccc(CBr)cc3)n2)cc1, which melting point is on record?
**A.** 144 to 145 °C

**Q.** Which melting point does the source give for COc1ccc(-n2c3ccccc3c3cc(C=C(C#N)c4cc(F)cc(F)c4)ccc32)cc1 here?
**A.** 200 to 203 °C

**Q.** Which melting point does the source give for COC(=O)c1c(Oc2nc(OC)cc(OC)n2)ccc2ncccc12 here?
**A.** 160 to 162 °C

**Q.** With CCc1cc(NC2=NCCN2C(C)=O)n(C)n1 as the compound, how does the melting point read?
**A.** 160 to 162 °C

**Q.** For NC(=O)Oc1ccccc1CCCCC#CCSCC#CCCCCc1ccccc1OC(N)=O, which melting point is on record?
**A.** 63 °C

**Q.** Which melting point does the source give for CCC(=O)OCc1ccc2oc(=O)c(C(=O)Oc3cncc(Cl)c3)cc2c1 here?
**A.** 156 to 158 °C
